In patent publication US6369069B1 (Aventis Pharma Deutschland GmbH, priority 1998, dated 2002):

System: Na^+-dependent Cl^−/HCO3^− exchanger (NCBE)
Test: Inhibition of the Na+-dependent Cl−/HCO3− exchanger (NCBE) in human endothelial cells (pHi recovery, BCECF fluorescence, FLIPR)
Type: cell-based
Settings: 10 μM
In short: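 ECV-304 cells loaded with 5 μM BCECF-AM in NH4Cl-containing saline, then placed in Na+/HCO3−-free buffer to acidify. pHi recovery started with Na+/HCO3− buffer (50 μM HOE 642) plus compound at various concentrations. Fluorescence kinetics over 2 min at 35 °C, normalised to 100% and 0% (HCO3−-free) controls.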

## COC(=O)C(Cc1ccccc1)N(Cc1ccc(-c2ccccc2S(=O)(=O)NC#N)cc1)C(=O)CCCCc1cccs1 (stereo not drawn) [Example 225]
  Residual activity % of the NCBE at 10 μM: 88.1%

## N#CNS(=O)(=O)c1ccccc1-c1ccc(CN(CCCc2ccccc2)C(=O)Cc2ccsc2)cc1 [Example 226]
  Residual activity % of the NCBE at 10 μM: 34.8%

## COCCN(Cc1ccc(-c2ccccc2S(=O)(=O)NC#N)cc1)C(=O)Cc1ccsc1 [Example 227]
  Residual activity % of the NCBE at 10 μM: 50.6%

## N#CNS(=O)(=O)c1ccccc1-c1ccc(CN(Cc2ccccn2)C(=O)Cc2ccsc2)cc1 [Example 228]
  Residual activity % of the NCBE at 10 μM: 94.8%

## N#CNS(=O)(=O)c1ccccc1-c1ccc(CN(C(=O)Cc2ccsc2)C2CC2)cc1 [Example 229]
  Residual activity % of the NCBE at 10 μM: 86.7%

## CN(Cc1ccc(-c2ccccc2S(=O)(=O)NC#N)cc1)C(=O)Cc1ccsc1 [Example 230]
  Residual activity % of the NCBE at 10 μM: 68.6%

## CCN(Cc1ccc(-c2ccccc2S(=O)(=O)NC#N)cc1)C(=O)Cc1ccsc1 [Example 231]
  Residual activity % of the NCBE at 10 μM: 57.8%

## N#CNS(=O)(=O)c1ccccc1-c1ccc(CN(Cc2nc3ccccc3[nH]2)C(=O)Cc2ccsc2)cc1 [Example 232]
  Residual activity % of the NCBE at 10 μM: 62.6%

## COC(=O)C(Cc1ccccc1)N(Cc1ccc(-c2ccccc2S(=O)(=O)NC#N)cc1)C(=O)Cc1ccsc1 (stereo not drawn) [Example 233]
  Residual activity % of the NCBE at 10 μM: 68.1%

## N#CNS(=O)(=O)c1ccccc1-c1ccc(CN(Cc2ccc(C(F)(F)F)cc2)C(=O)Cc2cccs2)cc1 [Example 235]
  Residual activity % of the NCBE at 10 μM: 67.1%

## N#CNS(=O)(=O)c1ccccc1-c1ccc(CN(CCCc2ccccc2)C(=O)Cc2cccs2)cc1 [Example 236]
  Residual activity % of the NCBE at 10 μM: 35.1%

## COCCN(Cc1ccc(-c2ccccc2S(=O)(=O)NC#N)cc1)C(=O)Cc1cccs1 [Example 237]
  Residual activity % of the NCBE at 10 μM: 50.3%

## N#CNS(=O)(=O)c1ccccc1-c1ccc(CN(CC2=Nc3ccccc3CN2)C(=O)Cc2cccs2)cc1 [Example 238]
  Residual activity % of the NCBE at 10 μM: 54.7%

## CN(Cc1ccc(-c2ccccc2S(=O)(=O)NC#N)cc1)C(=O)Cc1cccs1 [Example 239]
  Residual activity % of the NCBE at 10 μM: 56.3%

## CCN(Cc1ccc(-c2ccccc2S(=O)(=O)NC#N)cc1)C(=O)Cc1cccs1 [Example 240]
  Residual activity % of the NCBE at 10 μM: 58.0%

## N#CNS(=O)(=O)c1ccccc1-c1ccc(CN(Cc2ccccc2)C(=O)C(N)c2ccccc2)cc1 (stereo not drawn) [Example 241]
  Residual activity % of the NCBE at 10 μM: 66.0%

## N#CNS(=O)(=O)c1ccccc1-c1ccc(CN(Cc2ccccc2)C(=O)C(NC(=O)OCc2ccccc2)c2ccccc2)cc1 (stereo not drawn) [Example 242]
  Residual activity % of the NCBE at 10 μM: 72.4%

## N#CNS(=O)(=O)c1ccccc1-c1ccc(CN(Cc2ccccc2)C(=O)Cc2ccccc2[N+](=O)[O-])cc1 [Example 243]
  Residual activity % of the NCBE at 10 μM: 99.9%

## N#CNS(=O)(=O)c1ccccc1-c1ccc(CN(Cc2ccccc2)C(=O)CCCCc2ccccc2)cc1 [Example 244]
  Residual activity % of the NCBE at 10 μM: 60.4%

## N#CNS(=O)(=O)c1ccccc1-c1ccc(CN(Cc2ccccc2)C(=O)C(=O)c2ccco2)cc1 [Example 245]
  Residual activity % of the NCBE at 10 μM: 73.0%

## C#CCN(Cc1ccc(-c2ccccc2S(=O)(=O)NC#N)cc1)C(=O)C(NC(=O)OCc1ccccc1)c1ccccc1 (stereo not drawn) [Example 246]
  Residual activity % of the NCBE at 10 μM: 65.0%

## C#CCN(Cc1ccc(-c2ccccc2S(=O)(=O)NC#N)cc1)C(=O)CCCCc1ccccc1 [Example 247]
  Residual activity % of the NCBE at 10 μM: 74.6%

## C#CCN(Cc1ccc(-c2ccccc2S(=O)(=O)NC#N)cc1)C(=O)C(=O)c1ccco1 [Example 248]
  Residual activity % of the NCBE at 10 μM: 66.6%

## C#CCN(Cc1ccc(-c2ccccc2S(=O)(=O)NC#N)cc1)C(=O)CCC1CCCCC1 [Example 249]
  Residual activity % of the NCBE at 10 μM: 76.1%

## N#CNS(=O)(=O)c1ccccc1-c1ccc(CN(Cc2cccs2)C(=O)Cc2cccs2)cc1 [Example 250]
  Residual activity % of the NCBE at 10 μM: 41.1%

## N#CNS(=O)(=O)c1ccccc1-c1ccc(CN(Cc2cccs2)C(=O)C(NC(=O)OCc2ccccc2)c2ccccc2)cc1 (stereo not drawn) [Example 251]
  Residual activity % of the NCBE at 10 μM: 83.9%

## N#CNS(=O)(=O)c1ccccc1-c1ccc(CN(Cc2cccs2)C(=O)Cc2ccccc2[N+](=O)[O-])cc1 [Example 252]
  Residual activity % of the NCBE at 10 μM: 44.5%

## N#CNS(=O)(=O)c1ccccc1-c1ccc(CN(Cc2cccs2)C(=O)CCCCc2ccccc2)cc1 [Example 253]
  Residual activity % of the NCBE at 10 μM: 35.3%

## N#CNS(=O)(=O)c1ccccc1-c1ccc(CN(Cc2cccs2)C(=O)C(=O)c2ccco2)cc1 [Example 254]
  Residual activity % of the NCBE at 10 μM: 64.5%

## N#CNS(=O)(=O)c1ccccc1-c1ccc(CN(Cc2cccs2)C(=O)CCC2CCCCC2)cc1 [Example 255]
  Residual activity % of the NCBE at 10 μM: 61.0%

## N#CNS(=O)(=O)c1ccccc1-c1ccc(CN(CC2CCCCC2)C(=O)Cc2cccs2)cc1 [Example 256]
  Residual activity % of the NCBE at 10 μM: 36.4%

## N#CNS(=O)(=O)c1ccccc1-c1ccc(CN(CC2CCCCC2)C(=O)Cc2ccccc2[N+](=O)[O-])cc1 [Example 257]
  Residual activity % of the NCBE at 10 μM: 54.6%

## N#CNS(=O)(=O)c1ccccc1-c1ccc(CN(CC2CCCCC2)C(=O)C(=O)c2ccco2)cc1 [Example 258]
  Residual activity % of the NCBE at 10 μM: 95.8%

## N#CNS(=O)(=O)c1ccccc1-c1ccc(CN(Cc2ccc(Cl)c(Cl)c2)C(=O)Cc2cccs2)cc1 [Example 259]
  Residual activity % of the NCBE at 10 μM: 40.1%

## N#CNS(=O)(=O)c1ccccc1-c1ccc(CN(Cc2ccc(Cl)c(Cl)c2)C(=O)C(NC(=O)OCc2ccccc2)c2ccccc2)cc1 (stereo not drawn) [Example 260]
  Residual activity % of the NCBE at 10 μM: 69.8%

## N#CNS(=O)(=O)c1ccccc1-c1ccc(CN(Cc2ccc(Cl)c(Cl)c2)C(=O)Cc2ccccc2[N+](=O)[O-])cc1 [Example 261]
  Residual activity % of the NCBE at 10 μM: 67.7%

## N#CNS(=O)(=O)c1ccccc1-c1ccc(CN(Cc2ccc(Cl)c(Cl)c2)C(=O)CCCCc2ccccc2)cc1 [Example 262]
  Residual activity % of the NCBE at 10 μM: 45.3%

## N#CNS(=O)(=O)c1ccccc1-c1ccc(CN(Cc2ccc(Cl)c(Cl)c2)C(=O)C(=O)c2ccco2)cc1 [Example 263]
  Residual activity % of the NCBE at 10 μM: 54.0%

## N#CNS(=O)(=O)c1ccccc1-c1ccc(CN(Cc2ccc(Cl)c(Cl)c2)C(=O)CCC2CCCCC2)cc1 [Example 264]
  Residual activity % of the NCBE at 10 μM: 74.3%

## N#CNS(=O)(=O)c1ccccc1-c1ccc(CN(CC2CCCCC2)C(=O)C(NC(=O)OCc2ccccc2)c2ccccc2)cc1 (stereo not drawn) [Example 265]
  Residual activity % of the NCBE at 10 μM: 68.9%

## N#CNS(=O)(=O)c1ccccc1-c1ccc(CN(CC2CCCCC2)C(=O)CCCCc2ccccc2)cc1 [Example 266]
  Residual activity % of the NCBE at 10 μM: 79.7%

## N#CNS(=O)(=O)c1ccccc1-c1ccc(CN(CC2CCCCC2)C(=O)CCC2CCCCC2)cc1 [Example 267]
  Residual activity % of the NCBE at 10 μM: 57.9%

## COC(=O)C(c1ccccc1)N(Cc1ccc(-c2ccccc2S(=O)(=O)NC#N)cc1)C(=O)Cc1cccs1 (stereo not drawn) [Example 268]
  Residual activity % of the NCBE at 10 μM: 79.3%

## CC(C)(C)OC(=O)C(c1ccccc1)N(Cc1ccc(-c2ccccc2S(=O)(=O)NC#N)cc1)C(=O)Cc1cccs1 (stereo not drawn) [Example 269]
  Residual activity % of the NCBE at 10 μM: 94.4%

## N#CNS(=O)(=O)c1ccccc1-c1ccc(CN(Cc2ccc(Cl)cc2Cl)C(=O)Cc2cccs2)cc1 [Example 270]
  Residual activity % of the NCBE at 10 μM: 33.9%

## N#CNS(=O)(=O)c1ccccc1-c1ccc(CN(Cc2cccc3ccccc23)C(=O)Cc2cccs2)cc1 [Example 271]
  Residual activity % of the NCBE at 10 μM: 15.9%

## N#CNS(=O)(=O)c1ccccc1-c1ccc(CN(CCc2ccc(S(N)(=O)=O)cc2)C(=O)Cc2cccs2)cc1 [Example 272]
  Residual activity % of the NCBE at 10 μM: 65.0%

## N#CNS(=O)(=O)c1ccccc1-c1ccc(CN(Cc2cccc(Cl)c2)C(=O)Cc2cccs2)cc1 [Example 273]
  Residual activity % of the NCBE at 10 μM: 32.4%

## COC(=O)C(c1ccccc1)N(Cc1ccc(-c2ccccc2S(=O)(=O)NC#N)cc1)C(=O)Cc1ccccc1Br (stereo not drawn) [Example 274]
  Residual activity % of the NCBE at 10 μM: 73.6%

## CC(C)(C)OC(=O)C(c1ccccc1)N(Cc1ccc(-c2ccccc2S(=O)(=O)NC#N)cc1)C(=O)Cc1ccccc1Br (stereo not drawn) [Example 275]
  Residual activity % of the NCBE at 10 μM: 54.6%

## N#CNS(=O)(=O)c1ccccc1-c1ccc(CN(Cc2ccc(Cl)cc2Cl)C(=O)Cc2ccccc2Br)cc1 [Example 276]
  Residual activity % of the NCBE at 10 μM: 36.8%

## N#CNS(=O)(=O)c1ccccc1-c1ccc(CN(Cc2cccc3ccccc23)C(=O)Cc2ccccc2Br)cc1 [Example 277]
  Residual activity % of the NCBE at 10 μM: 36.3%

## N#CNS(=O)(=O)c1ccccc1-c1ccc(CN(Cc2cccc(Cl)c2)C(=O)Cc2ccccc2Br)cc1 [Example 278]
  Residual activity % of the NCBE at 10 μM: 31.2%

## N#CNS(=O)(=O)c1ccccc1-c1ccc(CN(Cc2ccc(Cl)cc2Cl)C(=O)CCS(=O)(=O)c2ccccc2)cc1 [Example 279]
  Residual activity % of the NCBE at 10 μM: 90.5%

## N#CNS(=O)(=O)c1ccccc1-c1ccc(CN(Cc2cccc3ccccc23)C(=O)CCS(=O)(=O)c2ccccc2)cc1 [Example 280]
  Residual activity % of the NCBE at 10 μM: 63.3%

## N#CNS(=O)(=O)c1ccccc1-c1ccc(CN(Cc2cccc(Cl)c2)C(=O)CCS(=O)(=O)c2ccccc2)cc1 [Example 281]
  Residual activity % of the NCBE at 10 μM: 68.6%

## N#CNS(=O)(=O)c1ccccc1-c1ccc(CN(C(=O)Cc2cccs2)C(C(=O)O)c2ccccc2)cc1 (stereo not drawn) [Example 282]
  Residual activity % of the NCBE at 10 μM: 89.0%
